Laboratory results published in paper PMC5623949, “Exploiting the 2-Amino-1,3,4-thiadiazole Scaffold To Inhibit Trypanosoma brucei Pteridine Reductase in Support of Early-Stage Drug Discovery” (ACS Omega, 2017).

Columns and labels:
[1] = test system: T. b. brucei Lister 427 bloodstream forms; test: In vitro activity against T. brucei (HTS SYBR Green I growth inhibition assay); assay type: cell-based, Trypanosoma brucei brucei; conditions: 50 μM, standard deviation within ±10% of the value; for inhibition at 50 µM: Trypanosoma brucei, read-out: % Inhibition T. brucei at 50 μM
[2] = target: T1, TbPTR1 (Trypanosoma brucei brucei, UniProt O76290); test: biochemical; conditions: for inhibition at 50 µM: 50 μM compound, read-out: % Inhibition TbPTR1 at 50 μM; for IC50: dose-response 0.001-100 μM
T1 construct: made in house
T1 sequence (O76290 1-268): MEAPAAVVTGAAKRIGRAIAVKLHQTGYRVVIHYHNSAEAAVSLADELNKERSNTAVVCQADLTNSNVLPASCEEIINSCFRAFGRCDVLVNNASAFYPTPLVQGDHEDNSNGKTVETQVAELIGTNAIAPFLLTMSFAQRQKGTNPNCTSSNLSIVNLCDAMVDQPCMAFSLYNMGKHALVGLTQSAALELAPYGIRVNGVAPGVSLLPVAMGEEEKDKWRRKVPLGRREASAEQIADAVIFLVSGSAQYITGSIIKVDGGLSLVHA

[3] = test system: THP-1-derived macrophages; test: Cytotoxicity against THP-1 macrophages (MTT); assay type: cell-based, human; conditions: 100 μM
Method: The effect of compounds 3k, 4h, 4m, and 4o on THP-1-derived macrophages was assessed by the colorimetric MTT assay [3-(4,5-dimethylthiazol-2-yl)-2,5-diphenyl tetrazolium bromide]. Briefly, 1 × 10^6 THP-1 cells were differentiated into macrophages by addition of 20 ng/mL of phorbol-myristate 13-acetate (PMA, Sigma-Aldrich) for 18 h, followed by replacement with a fresh medium and further incubation for 24 h. The cells were incubated with compounds ranging from 100 to 3 μM after dilution in the RPMI complete medium containing a maximum amount of 1% DMSO. After incubation for 72 h at 37 °C and 5% CO2, the medium was removed and 0.5 mg/mL MTT solution was added. The plates were incubated for 4 additional hours to allow viable cells to convert MTT into a purple formazan product. Solubilization of formazan crystals was achieved by addition of 2-propanol, and absorbance was read at 570 nm using a Synergy 2 multi-mode reader (BioTek).

`Nc1nnc(NCc2ccc(-c3ccccc3)cc2)s1` [4m] was tested, and the inhibition at 50 µM [1] was 6.6%, the inhibition at 50 µM [2] was 73 ± 1.1% and the IC50 [2] was 16 µM. For the same compound, the “toxicity in THP-1 cells alone vs combination with equimolar MTX” value [3] was “no increase in toxicity”.
For `Nc1nnc(NCCc2cccs2)s1` [4o, N2G(2G(thiophenG2Gyl)ethyl)G1,3,4GthiadiazoleG2,5Gdiamine], the “% Inhibition T. brucei at 50 μM” value [1] was “poor antiparasitic activity”, the inhibition at 50 µM [1] was 37.9% and the inhibition at 50 µM [2] was 79.8 ± 0.4%. For the same compound, the IC50 [2] was 25 µM.
